Active and inactive are the calls of the source. No cut-off for these calls is given here.
Tests used:
[1] = MRT infinity in 16 hrs fasted ICR mouse at 20 mg/kg, po measured upto 8 hrs by LC-MS/MS analysis; assay type: ADME, organism-based; conditions: in vivo
[2] = molecular target: Voltage-gated inwardly rectifying potassium channel KCNH2 (Homo sapiens, UniProt Q12809); assay: Inhibition of human ERG expressing HEK cells by whole-cell patch clamp assay; assay type: toxicity, cell-based
[3] = tested on: Mus musculus; assay: Anti-lipogenic activity against high fat died induced male C57BL/6J mouse obesity model assessed as reduction liver tissue size at 15 mg/kg, po administered three times per week and measured for 5 weeks; assay type: functional, organism-based
[4] = Stability in rat plasma measured after 120 mins by LC-MS/MS analysis; assay type: ADME, cell-free; conditions: read-out: Stability
[5] = tested on: Hepatocyte; assay: Inhibition of LXR-induced fat accumulation in mouse Hepatocyte at 10 uM incubated for 30 mins followed by T0901317 addition by Oil red O staining based analysis; assay type: functional, cell-based
[6] = tested on: Hepatocyte; assay: Inhibition of Srebp-1c level in mouse hepatocyte at 10 uM preincubated with compound for 30 mins followed by T0901317 addition and measured after 12 hrs; assay type: functional, cell-based; conditions: time 12.5 hrs
[7] = tested on: Hepatocyte; assay: Inhibition of Fasn level in mouse hepatocyte at 10 uM preincubated with compound for 30 mins followed by T0901317 addition and measured after 12 hrs; assay type: functional, cell-based; conditions: time 12.5 hrs
[8] = molecular target: NAD-dependent protein deacylase sirtuin-6 (Homo sapiens) (UniProt Q8N6T7); assay: Activation of recombinant SIRT6 (unknown origin) using fluoro-substrate peptide as substrate at 2.5 to 400 uM by fluorescence based analysis; conditions: filed as activator, dose 2.5-400 µM
NAD-dependent protein deacylase sirtuin-6 (Homo sapiens), sequence (Q8N6T7 whole entry): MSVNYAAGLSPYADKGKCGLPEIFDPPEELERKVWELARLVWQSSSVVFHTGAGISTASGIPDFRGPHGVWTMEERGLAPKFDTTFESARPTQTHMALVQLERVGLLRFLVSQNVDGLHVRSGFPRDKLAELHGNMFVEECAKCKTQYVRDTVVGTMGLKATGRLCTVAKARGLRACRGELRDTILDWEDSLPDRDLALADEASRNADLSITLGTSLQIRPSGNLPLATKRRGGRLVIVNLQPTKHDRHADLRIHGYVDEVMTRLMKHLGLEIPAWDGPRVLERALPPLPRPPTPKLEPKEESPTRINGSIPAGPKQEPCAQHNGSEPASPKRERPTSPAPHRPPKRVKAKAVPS

[9] = (§1) Downregulation of SREBP-1c mRNA expression in human HepG2 cells pretreated with compound for 30 mins followed by T0901317 addition and measured after 12 hrs by RT-qPCR analysis; assay type: functional, cell-based
[10] = tested on: HepG2; assay: as §1; assay type: functional, cell-based; conditions: dose 0.01-100 µM, time 12.5 hrs
[11] = tested on: HepG2; assay: Downregulation of SCD gene expression in human HepG2 cells in presence of T0901317 by RNA sequencing analysis; assay type: functional, cell-based
[12] = Metabolic stability in human liver microsomes at 1 uM measured after 30 mins in presence of NADPH regeneration system by LC-MS/MS analysis; assay type: ADME, Microsome; conditions: read-out: Stability
[13] = tested on: HepG2; assay: Downregulation of ACACA gene expression in human HepG2 cells in presence of T0901317 by RNA sequencing analysis; assay type: functional, cell-based
[14] = Oral bioavailability in 16 hrs fasted ICR mouse at 20 mg/kg measured upto 8 hrs by LC-MS/MS analysis; assay type: ADME, organism-based; conditions: in vivo
[15] = tested on: Mus musculus; assay: Anti-lipogenic activity against high fat died induced male C57BL/6J mouse obesity model assessed as downregulation of scd level at 15 mg/kg, po administered three times per week and measured after 5 weeks by RT-qPCT analysis; assay type: functional, organism-based
[16] = tested on: HepG2; assay: Downregulation of SCD mRNA level in human HepG2 cells at 10 uM pretreated with compound for 30 mins followed by GW2935 addition and measured after 12 hrs by RT-qPCR analysis; assay type: functional, cell-based; conditions: time 12.5 hrs
[17] = tested on: HepG2; assay: Downregulation of FASN mRNA level in human HepG2 cells at 10 uM pretreated with compound for 30 mins followed by […] addition and measured after 12 hrs by RT-qPCR analysis; assay type: functional, cell-based; conditions: time 12.5 hrs
[18] = tested on: Mus musculus; assay: Anti-lipogenic activity against high fat died induced male C57BL/6J mouse obesity model assessed as decrease in hepatic fat content at 15 mg/kg, po administered three times per week and measured for 5 weeks by Oil red O staining based analysis; assay type: functional, organism-based
[19] = tested on: Mus musculus; assay: Anti-lipogenic activity against high fat died induced male C57BL/6J mouse obesity model assessed as reduction in lipid droplet formation at 15 mg/kg, po administered three times per week and measured for 5 weeks by H and E staining based analysis; assay type: functional, organism-based
[20] = tested on: HepG2; assay: Downregulation of ACLY gene expression in human HepG2 cells in presence of T0901317 by RNA sequencing analysis; assay type: functional, cell-based
[21] = molecular target: CYP2D6 (Homo sapiens, UniProt P10635); assay: Inhibition of CYP2D6 in human liver microsomes at 10 uM using dextromethorphan as substrate preincubated for 5 mins followed by NADPH generating system addition and measured after 15 mins relative to control; assay type: ADME, Microsome; conditions: probe dextromethorphan, time 20 min
CYP2D6, sequence (P10635 whole entry): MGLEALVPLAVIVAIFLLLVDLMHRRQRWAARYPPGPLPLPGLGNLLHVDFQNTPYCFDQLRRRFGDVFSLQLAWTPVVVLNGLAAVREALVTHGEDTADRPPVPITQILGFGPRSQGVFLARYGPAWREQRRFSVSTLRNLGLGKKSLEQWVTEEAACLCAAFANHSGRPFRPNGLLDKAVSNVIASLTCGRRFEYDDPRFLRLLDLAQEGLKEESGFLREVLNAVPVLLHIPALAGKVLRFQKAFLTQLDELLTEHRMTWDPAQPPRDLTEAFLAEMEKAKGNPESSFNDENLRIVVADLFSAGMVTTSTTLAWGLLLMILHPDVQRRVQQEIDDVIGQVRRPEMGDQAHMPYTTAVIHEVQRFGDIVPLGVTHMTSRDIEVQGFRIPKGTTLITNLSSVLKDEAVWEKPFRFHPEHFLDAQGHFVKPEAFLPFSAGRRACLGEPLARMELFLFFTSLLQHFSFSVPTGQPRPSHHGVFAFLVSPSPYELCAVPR

[22] = tested on: HepG2; assay: Downregulation of acetylated histone H3K9 level in human HepG2 cells at 5 to 10 uM preincubated for 30 mins followed by OSS128167 addition and measured after 12 hrs; assay type: functional, cell-based; conditions: dose 5-10 µM, time 12.5 hrs
[23] = tested on: Hepatocyte; assay: Effect on Acox-1 gene expression in mouse hepatocyte; assay type: functional, cell-based
[24] = Downregulation of SREBP-1c mRNA expression in human HepG2 cells at 10 uM pretreated with compound for 30 mins followed by T0901317 addition and measured after 12 hrs by RT-qPCR analysis relative to control; assay type: functional; conditions: time 12.5 hrs
[25] = tested on: Mus musculus; assay: Anti-lipogenic activity against high fat died induced male C57BL/6J mouse obesity model assessed as downregulation of Cxcl10 mRNA level at 15 mg/kg, po administered three times per week and measured after 5 weeks by RT-qPCT analysis; assay type: functional, organism-based
[26] = tested on: Hepatocyte; assay: Effect on Ppara gene expression in mouse hepatocyte; assay type: functional, cell-based
[27] = tested on: HepG2; assay: Downregulation of LXRalpha expression level in nucleus of human HepG2 cells at 10 uM preincubated with compound for 30 mins followed by T0901317 addition and measured after 24 hrs by immunoblot analysis; assay type: functional, cell-based; conditions: time 24.5 hrs
[28] = Stability in human plasma measured after 120 mins by LC-MS/MS analysis; assay type: ADME, cell-free; conditions: read-out: Stability
[29] = tested on: HepG2; assay: Downregulation of acetylated histone H3K9 level in human HepG2 cells preincubated for 30 mins followed by T0901317 addition and measured after 12 hrs; assay type: functional, cell-based; conditions: dose 5-10 µM, time 12.5 hrs
[30] = tested on: Mus musculus; assay: Anti-lipogenic activity against high fat died induced male C57BL/6J mouse obesity model assessed as downregulation of Acaca-gene level at 15 mg/kg, po administered three times per week and measured after 5 weeks by RT-qPCT analysis; assay type: functional, organism-based
[31] = tested on: HepG2; assay: Downregulation of LXRalpha expression level in human HepG2 cell lysate at 10 uM preincubated with compound for 30 mins followed by T0901317 addition and measured after 24 hrs by immunoblot analysis; assay type: functional, subcellular; conditions: time 24.5 hrs
[32] = tested on: HepG2; assay: Downregulation of ACACA expression level in human HepG2 cells at 5 to 10 uM pretreated with compound for 30 mins followed by T0901317 addition and measured after 12 hrs by RT-qPCR analysis; assay type: functional, cell-based; conditions: dose 5-10 µM, time 12.5 hrs
[33] = tested on: Hepatocyte; assay: Effect on Cpt1 gene expression in mouse hepatocyte; assay type: functional, cell-based

Voltage-gated inwardly rectifying potassium channel KCNH2, sequence (Q12809 whole entry): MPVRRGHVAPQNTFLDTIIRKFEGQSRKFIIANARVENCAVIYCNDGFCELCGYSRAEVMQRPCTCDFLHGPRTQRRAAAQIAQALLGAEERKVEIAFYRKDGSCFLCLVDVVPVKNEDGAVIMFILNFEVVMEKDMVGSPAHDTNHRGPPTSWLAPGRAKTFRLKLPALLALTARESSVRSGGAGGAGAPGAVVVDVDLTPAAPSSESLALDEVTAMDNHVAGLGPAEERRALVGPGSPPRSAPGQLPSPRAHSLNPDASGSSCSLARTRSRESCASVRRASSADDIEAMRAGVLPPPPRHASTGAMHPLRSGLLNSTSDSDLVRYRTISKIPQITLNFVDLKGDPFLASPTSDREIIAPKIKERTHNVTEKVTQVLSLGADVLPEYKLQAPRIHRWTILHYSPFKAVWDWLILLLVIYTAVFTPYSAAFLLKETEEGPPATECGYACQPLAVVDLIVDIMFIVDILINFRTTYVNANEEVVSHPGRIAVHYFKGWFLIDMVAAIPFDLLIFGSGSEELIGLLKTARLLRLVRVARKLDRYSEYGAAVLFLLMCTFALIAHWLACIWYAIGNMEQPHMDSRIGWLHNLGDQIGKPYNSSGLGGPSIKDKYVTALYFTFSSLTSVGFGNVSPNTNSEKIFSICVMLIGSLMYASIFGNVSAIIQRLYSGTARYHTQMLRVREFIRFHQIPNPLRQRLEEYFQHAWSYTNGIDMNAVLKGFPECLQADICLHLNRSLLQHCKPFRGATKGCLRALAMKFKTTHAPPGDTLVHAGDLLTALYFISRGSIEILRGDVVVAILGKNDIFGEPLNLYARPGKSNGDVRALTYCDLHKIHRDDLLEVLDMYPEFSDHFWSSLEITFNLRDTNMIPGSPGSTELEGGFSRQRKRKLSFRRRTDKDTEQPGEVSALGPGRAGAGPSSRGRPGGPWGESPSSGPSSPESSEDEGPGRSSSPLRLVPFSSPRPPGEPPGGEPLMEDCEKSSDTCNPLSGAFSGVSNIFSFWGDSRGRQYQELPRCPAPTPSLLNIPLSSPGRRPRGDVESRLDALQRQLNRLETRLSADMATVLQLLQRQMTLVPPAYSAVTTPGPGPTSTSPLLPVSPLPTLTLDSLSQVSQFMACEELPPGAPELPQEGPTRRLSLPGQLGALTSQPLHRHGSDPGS

For `COc1ccccc1Nc1c(N[C@H]2CC[C@H](Oc3ccc([N+](=O)[O-])cc3)CC2)c(=O)c1=O`, the MRT inf [1] was 1.6 h, the IC50 [2] was 33.2 µM and the Activity [3] was “Active”. The remaining at 2 h [4] was 96.2%, the inhibition [5] was “Active” and the inhibition [6] was “Active”. For the same molecule, the inhibition [7] was “Active”, the Activity [8] was “Active” and the IC50 [9] was 2.5 µM. The Activity [10] was “Dose-dependent-effect”, the Activity [11] was “Active” and the remaining at 0.5 h, 1 µM [12] was 34.2%. The Activity [13] was “Active”, the bioavailability [14] was 11.2% and the Activity [15] was “Active”. For the same molecule, the Activity [16] was “Active”, the Activity [17] was “Active” and the Activity [18] was “Active”. For the same molecule, the Activity [19] was “Active”, the Activity [20] was “Active” and the inhibition at 0.25 h, 10 µM [21] was greater than 100%. For the same molecule, the Activity [22] was “inactive”, the Activity [23] was “inactive” and the Activity [24] was 16.2%. For the same molecule, the Activity [25] was “Active”, the Activity [26] was “inactive” and the Activity [27] was “Active”. For the same molecule, the remaining at 2 h [28] was 94.6%, the Activity [29] was “Dose-dependent-effect” and the Activity [30] was “Active”. For the same molecule, the Activity [31] was “Active”, the Activity [32] was “Active” and the Activity [33] was “inactive”.

Source: ChEMBL document CHEMBL6120940, “Discovery of N-Aryl-N'-[4-(aryloxy)cyclohexyl]squaramide-Based Inhibitors of LXR/SREBP-1c Signaling Pathway Ameliorating Steatotic Liver Disease: Navigating the Role of SIRT6 Activation” (J Med Chem, 2024)
